Laboratory results from patent publication US20220362399A1, “COMPOSITIONS AND ARTICLES COMPRISING (NANO)DIAMOND PARTICLES” (Debina Diagnostics, Inc., priority 2019, published 2022).

Assays:
[1] = tested on: HepG-2 cells; experiment: MTT assay (redox state), HepG-2; format: cell-based, human; conditions: vincristine 50 μg/mL, 24 hours
Protocol: (§1) The MTT assay was performed as a colorimetric assay using the Cell Proliferation Assay Kit (ThermoFisher Sci), composed of component A (3-(4,5-dimethylthiazol-2-yl)-2,5-diphenyltetrazolium bromide (MTT)) and component B (SDS (sodium dodecyl sulfate)) according to manufacturer's protocol. Briefly, HepG-2 cells and HUVEC were seeded in 96-well plates at a density of 1×10^4 cells per well in media described above for each cell type. Cells were treated or not with FDP-NV-BSA or vincristine (50 μg/mL) for 24 hours. Media (100 μL) were changed to phenol red-free DMEM (Dulbecco's Modified Eagle Medium) (ThermoFisher Sci), containing MTT component A. Plates were incubated for 4 hours, and cells lysed by adding equal volumes of 10% SDS (kit component B). Plates were incubated overnight and read using an ELISA plate reader ELx800 (BioTek, Winooski, Vt., USA) at 562 nm wavelength.

[2] = tested on: HUVEC; experiment: MTT assay (redox state), HUVEC; format: cell-based, human; conditions: vincristine 50 μg/mL, 24 hours
Protocol: as §1

[3] = tested on: HepG-2 cells; experiment: Cell counting assay, HepG-2; format: cell-based; conditions: Homo sapiens, HepG2; vincristine 50 μg/mL, 24 hours; read-out: proliferation, % of controls
Protocol: (§2) Cell counting was performed. The HepG-2 cell line was purchased from American Type Culture Collection (ATTC) (Manassas, Va., USA). Primary HUVEC were purchased from Lonza and used for experiments between the 5th-8th passages. Cells maintained (37° C. at 5% CO2 atmosphere) in their respective culture media as described above. HepG-2 and HUVEC were ‘seeded’ in 96-well plates (2×10^3 per well in 100 μL medium) and treated or not with FDP-NV-BSA for 24 hours. In each experiment, vincristine (50 μg/mL), a cell-cycle proliferation inhibitor, was added as a positive control. At 24 hrs, the medium was removed, the cells were fixed with 4% paraformaldehyde (PFA, ThermoFisher Sci) and the nuclei were stained using DAPI (4′,6-diamino-2-phenylindole, dihydrochloride, ThermoFisher Sci). The plates were analyzed in a fluorescence microscope (Olympus IX81, Olympus, Tokyo, Japan) by imaging 7 observation fields for each well using 100× magnification and DAPI (blue filter) for nuclei visualization, and TRITC (red filter) for FNDP-NV-BSA visualization. The number of viable cells in each field was determined by analysis of DAPI stained nuclei using ImageJ software (National Institutes of Health, Bethesda, Md., USA) with a digitally set-up cell counter.

[4] = tested on: HUVEC; experiment: Cell counting assay, HUVEC; format: cell-based; conditions: Homo sapiens, vincristine 50 μg/mL, 24 hours, read-out: proliferation, % of controls
Protocol: as §2

[5] = tested on: CHOP and BiP; experiment: ER-stress biomarkers (Western blot), HepG-2; format: cell-based, human; conditions: tunicamycin 25 μg/mL
Protocol: (§3) HepG-2 cells and HUVEC were treated (or not) with 0.1 mg/mL FDP-NV-BSA as described above. Treatment with vincristine (200 μg/mL) was used as a positive control for apoptosis, and with tunicamycin (25 μg/mL) as a positive control for ER-stress. A rabbit polyclonal antibody against caspase 3 (Cell Sign. Techn), which recognizes both the cleaved and the non-cleaved protein, was used for apoptosis detection. Rabbit mAb (clone C50B12) against BiP and mouse mAb (clone L63F7) against Chop (both from Cell Sign. Techn) were used for the detection of ER-stress. Equal loading of proteins was verified by membrane stripping and re-probing with an anti-actin mouse monoclonal antibody (Sigma Inc.).

[6] = tested on: CHOP and BiP; experiment: ER-stress biomarkers (Western blot), HUVEC; format: cell-based, human; conditions: tunicamycin 25 μg/mL
Protocol: as §3

| Compound | redox activity, % of normal controls [1] | redox activity, % of normal controls [2] | activity at 50 µg/mL [3] | activity at 50 µg/mL [4] | ER-stress protein activation [5] | ER-stress protein activation [6] |
| --- | --- | --- | --- | --- | --- | --- |
| CC[C@]1(O)C[C@H]2CN(CCc3c([nH]c4ccccc34)[C@@](C(=O)OC)(c3cc4c(cc3OC)N(C=O)[C@H]3[C@@](O)(C(=O)OC)[C@H](OC(C)=O)[C@]5(CC)C=CCN6CC[C@]43[C@@H]65)C2)C1 [vincristine] | 25-30% | 25-30% | 50% | 80% |  |  |
| tunicamycin |  |  |  |  | sensitive | sensitive |
